Counter-ions that a name gives are not always drawn. Like-named read-outs stand apart in the source and are kept apart here.
Test system: Aβ1-42 production
Experiment: Cellular assay for inhibition of Aβ1-42 production (H4 APP751 SWE clone 8.20)
Type: cell-based
Details: H4 APP751 SWE clone 8.20 cells, 19 h incubation
Outline: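 Viewlux signal read-out; IC50 by curve fit. Sandwich: 565 anti-Aβ42 neoepitope (Wallac conjugate, 0.8 ng/well) + 26D6 anti-N-terminus (APC, 75 ng/well), in Tris-HCl 40 mM pH 7.4/0.2% BSA, o/n 4 °C. Cells exposed to compound 19 h, 37 °C, 5% CO2.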

[1] = 19 h, class symbols, read-out: Activity Rating (Aβ42 cellular IC50)
[2] = class symbols, read-out: Activity Rating (Aβ42 cellular IC50)

Structure (SMILES) | IC50 [1] | IC50 [2] | also measured
CNc1nc(Nc2ccc(C#N)c(OC(F)(F)F)c2)nc2c1CCC2c1ccccc1 (stereo not drawn) [Example 246, 4-(4-(methylamino)-7-phenyl-6,7-dihydro-5H-cyclopenta[d]pyrimidin-2-ylamino)-2-(trifluoromethoxy)benzonitrile] |  |  | IC50 (19 h, read-out: Activity Rating (Aβ42 cellular IC50), numeric value): 31 nM
CNc1nc(Nc2ccnc(C)c2)nc2c1CCC2c1ccccc1 (stereo not drawn) [Example 216, N4-methyl-N2-(2-methylpyridin-4-yl)-7-phenyl-6,7-dihydro-5H-cyclopenta[d]pyrimidine-2,4-diamine] | > 1000 nM |  | 
CNc1nc(Nc2ccc(-n3cnc(Cl)c3)c(OC)c2)nc2c1CN(S(=O)(=O)C1CC1)CC2c1ccccc1 (stereo not drawn) [Example 130, N2-(4-(4-chloro-1H-imidazol-1-yl)-3-methoxyphenyl)-6-(cyclopropylsulfonyl)-N4-methyl-8-phenyl-5,6,7,8-tetrahydropyrido[4,3-d]pyrimidine-2,4-diamine] | 1.5 to 9.9 nM |  | 
CCNc1nc(Nc2ccc(-n3cnc(Cl)c3)c(OC)c2)nc2c1COCC2c1ccc(C(F)(F)F)cc1 (racemic) [Example 118, N2-(4-(4-chloro-1H-imidazol-1-yl)-3-methoxyphenyl)-N4-ethyl-8-(4-(trifluoromethyl)phenyl)-7,8-dihydro-5H-pyrano[4,3-d]pyrimidine-2,4-diamine, TFA] | 10 to 100 nM |  | 
CNC1CCN(c2nc(Nc3ccc(-n4cnc(Cl)c4)c(OC)c3)nc3c2CCC3c2ccc(F)cc2)C1 (stereo not drawn) [Example 32, N-(4-(4-chloro-1H-imidazol-1-yl)-3-methoxyphenyl)-7-(4-fluorophenyl)-4-(3-(methylamino)pyrrolidin-1-yl)-6,7-dihydro-5H-cyclopenta[d]pyrimidin-2-amine] | 10 to 100 nM |  | 
COc1cc(Nc2nc3c(c(N4CC[C@@H](F)C4)n2)CCC3c2ccc(F)cc2)ccc1-n1cnc(Cl)c1 (stereo partly drawn) [Example 38, N-(4-(4-chloro-1H-imidazol-1-yl)-3-methoxyphenyl)-7-(4-fluorophenyl)-4-((R)-3-fluoropyrrolidin-1-yl)-6,7-dihydro-5H-cyclopenta[d]pyrimidin-2-amine] | 10 to 100 nM |  | 
CNc1nc(Nc2ccc(-n3ncnc3C)c(OC)c2)nc2c1CN(C)CC2c1ccc(F)cc1 (stereo not drawn) [Example 199, 8-(4-fluorophenyl)-N2-(3-methoxy-4-(5-methyl-1H-1,2,4-triazol-1-yl)phenyl)-N4,6-dimethyl-5,6,7,8-tetrahydropyrido[4,3-d]pyrimidine-2,4-diamine] |  | 10 to 100 nM | 
CCNc1nc(Nc2ccc(-n3cnc(Cl)c3)c(OC)c2)nc2c1CN(S(C)(=O)=O)CC2c1ccccc1 (stereo not drawn) [Example 134, N2-(4-(4-chloro-1H-imidazol-1-yl)-3-methoxyphenyl)-N4-ethyl-6-(methylsulfonyl)-8-phenyl-5,6,7,8-tetrahydropyrido[4,3-d]pyrimidine-2,4-diamine] | 1.5 to 9.9 nM |  | 
CNc1nc(Nc2ccc(-n3cnc(C)n3)c(F)c2)nc2c1CCOC2c1ccccc1 (stereo not drawn) [Example 86, N2-(3-fluoro-4-(3-methyl-1H-1,2,4-triazol-1-yl)phenyl)-N4-methyl-8-phenyl-6,8-dihydro-5H-pyrano[3,4-d]pyrimidine-2,4-diamine] | 10 to 100 nM |  | 

Now from value to compound, other results behind:

IC50 [1] | IC50 [2] | Structure (SMILES) | also measured
 | 10 to 100 nM | CCC1CCCN1c1nc(Nc2ccc(-n3cnc(Cl)c3)c(OC)c2)nc2c1CCC2c1ccc(F)cc1 (single isomer, unassigned) [Example 23A, N-(4-(4-chloro-1H-imidazol-1-yl)-3-methoxyphenyl)-4-(2-ethylpyrrolidin-1-yl)-7-(4-fluorophenyl)-6,7-dihydro-5H-cyclopenta[d]pyrimidin-2-amine] | 
 | 1.5 to 9.9 nM | COc1cc(Nc2nc3c(c(N4CC(OC)C4)n2)CCC3c2ccccc2)ccc1-n1cnc(Cl)c1 (single isomer, unassigned) [Example 183A, N-(4-(4-chloro-1H-imidazol-1-yl)-3-methoxyphenyl)-4-(3-methoxyazetidin-1-yl)-7-phenyl-6,7-dihydro-5H-cyclopenta[d]pyrimidin-2-amine] | 
 | 1.5 to 9.9 nM | CNc1nc(Nc2ccc(-n3ncnc3C)c(F)c2)nc2c1CCC2c1ccccc1 (single isomer, unassigned) [Example 3A, N^2-(3-fluoro-4-(5-methyl-1H-1,2,4-triazol-1-yl)phenyl)-N^4-methyl-7-phenyl-6,7-dihydro-5H-cyclopenta[d]pyrimidine-2,4-diamine] | 
1.5 to 9.9 nM |  | CNc1nc(Nc2ccc(-n3cnc(Cl)c3)c(OC)c2)nc2c1COCC2c1ccccc1 (single isomer, unassigned) [Example 51A, N^2-(4-(4-chloro-1H-imidazol-1-yl)-3-methoxyphenyl)-N^4-methyl-8-phenyl-7,8-dihydro-5H-pyrano[4,3-d]pyrimidine-2,4-diamine] | 
 | 1.5 to 9.9 nM | CCNc1nc(Nc2ccc(-n3cnc(Cl)c3)c(OC)c2)nc2c1COCC2c1ccc(F)c(F)c1 (stereo not drawn) [Example 113A, N2-(4-(4-chloro-1H-imidazol-1-yl)-3-methoxyphenyl)-8-(3,4-difluorophenyl)-N4-ethyl-7,8-dihydro-5H-pyrano[4,3-d]pyrimidine-2,4-diamine] | 
 | 1.5 to 9.9 nM | CCNc1nc(Nc2ccc(-n3cnc(Cl)c3)c(OC)c2)nc2c1CCN(CC)C2c1ccc(F)cc1 (single isomer, unassigned) [Example 169A, N2-(4-(4-chloro-1H-imidazol-1-yl)-3-methoxyphenyl)-N4,7-diethyl-8-(4-fluorophenyl)-5,6,7,8-tetrahydropyrido[3,4-d]pyrimidine-2,4-diamine] | 

Reference: patent US8637525B2, “Compounds for the reduction of beta-amyloid production” (Bristol-Myers Squibb Company, priority 2009, dated 2014)
